Laboratory results published in patent publication US20170042890A1, “METHODS OF REDUCING DECLINE IN VITAL CAPACITY” (Cytokinetics, Inc., priority 2014, published 2017).

Test system: patients with ALS
Experiment: BENEFIT-ALS clinical trial: treatment-emergent adverse events, discontinuations, deaths
Format: in vivo, human
Description: BENEFIT-ALS was a multi-national, randomized, stratified, double-blind, placebo-controlled, parallel-group study of tirasemtiv in patients with ALS. The study consisted of a screening period, an open-label/lead-in period, and a double-blind treatment period. Following screening, eligible patients received open-label tirasemtiv, 125 mg BID, for 7 days. Patients who tolerated the 7-day lead-in period were randomized in a 1:1 ratio to tirasemtiv or placebo. Over the first 3 weeks of double-blind treatment, patients randomized to tirasemtiv had their TDD up-titrated as follows: 250 mg for 7 days, then 375 mg for 7 days, then 500 mg for 7 days. […] However, in such cases, dose escalation was re-attempted at least one additional time. The highest tolerable tirasemtiv dose for each individual patient was the dose that patient received for the remaining 9 weeks (i.e., the maximum tolerated dose [MTD] phase) of the study. Patients randomized to placebo underwent a corresponding dummy dose titration.
A total of 711 patients were enrolled in the study and began treatment with open-label tirasemtiv 125 mg BID. After the one-week open-label phase, 302 patients were randomized to placebo and 303 to tirasemtiv. Of these randomized patients, 269 in the placebo group and 204 in the tirasemtiv group completed the study, while 33 on placebo and 99 on tirasemtiv prematurely discontinued study drug, primarily due to AEs (12 patients on placebo 78 patients on tirasemtiv) and patient withdrawal of consent (7 placebo, 12 tirasemtiv).
Safety data presented were based on the safety analysis set, defined as all patients who received at least 1 dose of double-blind study drug. Of the 605 randomized patients, 596 (295 placebo, 301 tirasemtiv) received at least 1 dose of double-blind study drug and were included in the safety analysis set. Data for the primary and secondary efficacy endpoints were analyzed with the Modified FAS. This analysis set included all patients who received at least 1 dose of double-blind study drug and had at least 1 efficacy assessment during the double-blind treatment period, and excluded 156 patients who were randomized in blocks containing patients affected by a study drug assignment error in which 58 patients randomized to and treated with double-blind tirasemtiv were dispensed double-blind placebo instead. Based on these criteria, the Modified FAS consisted of 388 patients (210 placebo, 178 tirasemtiv).
An overview of treatment-emergent AEs during the double-blind phase of the study is provided in Table 4, and commonly reported AEs during the double-blind phase are summarized in Table 5. Serious AEs during the double-blind phase of the study were reported for 16 patients (5.4%) in the placebo group and 27 patients (9.0%) in the tirasemtiv group. By the Medical Dictionary for Regulatory […] (MedDRA) system organ class, the most commonly reported SAEs involved respiratory, thoracic and mediastinal disorders (2.0% placebo, 1.3% tirasemtiv). By MedDRA preferred term, AEs that were reported for more than 1 patient included the following: dysphagia (0.3% placebo, 0.7% tirasemtiv), pneumonia (0.3% placebo, 0.7% tirasemtiv), confusional state (0% placebo, 0.7% tirasemtiv), delirium (0% placebo, 0.7% tirasemtiv), and respiratory failure (1.0% placebo, […]).

[1] = double-blind phase, N=301, MedDRA preferred term
[2] = double-blind phase, N=301, NCI CTCAE
[3] = double-blind phase, N=301, listed as tirasemtiv
[4] = double-blind phase, reported for more than 1 patient

With C#Cc1cnc2nc(O)n(C(CC)CC)c2n1 [Tirasemtiv, 6-ethynyl-1-(pentan-3-yl)-1H-imidazo[4,5-b]pyrazin-2(3H)one] the “Patients who terminated treatment during the first 4 weeks of the double-blind phase” value (71/97 of early terminations) was 73.2%, the “Confusional state leading to early discontinuation” value (double-blind phase) was 5.0% and the “Dizziness leading to early discontinuation” value (double-blind phase) was 9.3%. The “Fatigue leading to early discontinuation” value (double-blind phase) was 5.0%, the “Gastrointestinal (GI) AEs, % of patients” value (double-blind phase) was 43.5% and the “Gastrointestinal (GI) AEs, No. of patients” value (double-blind phase) was 131. The “SAEs: respiratory, thoracic and mediastinal disorders (MedDRA system organ class)” value (double-blind phase) was 1.3%, the “% of patients with AE leading to early termination” value (double-blind phase, N=301) was “(25.9%)” and the “% of patients with SAE” value (double-blind phase, N=301) was “(9.0%)”. The “Deaths, % of patients” value (double-blind phase, N=301) was “(0.7%)”, the “Deaths, No. of patients” value (double-blind phase, N=301) was 2 and the “No. of patients with AE leading to early termination” value (double-blind phase, N=301) was 78. For the same molecule, the “No. of patients with SAE” value (double-blind phase, N=301) was 27, the “AE Asthenia” value [1] was 15.9% and the “AE Confusional state” value [1] was 11.0%. For the same molecule, the “AE Constipation” value [1] was 6.3%, the “AE Contusion” value [1] was 7.3% and the “AE Decreased appetite” value [1] was 10.0%. The “AE Diarrhea” value [1] was 7.3%, the “AE Dizziness” value [1] was 50.8% and the “AE Fatigue” value [1] was 33.2%. The “AE Headache” value [1] was 17.9%, the “AE Insomnia” value [1] was 10.3% and the “AE Muscle spasms” value [1] was 15.0%. The “AE Muscular weakness” value [1] was 11.3%, the “AE Nasopharyngitis” value [1] was 6.3% and the “AE Nausea” value [1] was 21.9%. For the same molecule, the “AE Respiratory failure” value [1] was 6.3%, the “AE Somnolence” value [1] was 13.0% and the “% of patients with Grade 3 AE” value [2] was “(20.3%)”. For the same molecule, the “% of patients with Grade 4 AE” value [2] was “(3.0%)”, the “% of patients with Grade 5 AE” value [2] was “(0.7%)” and the “No. of patients with Grade 3 AE” value [2] was 61. For the same molecule, the “No. of patients with Grade 4 AE” value [2] was 9, the “No. of patients with Grade 5 AE” value [2] was 2 and the “% of patients with SAE” value [3] was 9.0%. For the same molecule, the “Deaths, % of patients” value [3] was 0.7%, the “Serious AE confusional state” value [4] was 0.7% and the “Serious AE delirium” value [4] was 0.7%. The “Serious AE dysphagia” value [4] was 0.7%, the “Serious AE pneumonia” value [4] was 0.7% and the “Serious AE respiratory failure” value [4] was 0.5%. For the same molecule, the “No. of patients with any treatment-emergent AE” value (double-blind phase, safety set N=301) was 291 and the “Patients who prematurely discontinued study drug” value (of 303 randomized to tirasemtiv) was 99.
